Measured values as given in patent US12465629B2, “Prevention and treatment of organ injuries” (Farsight Medical Technology (Shanghai) Co., Ltd., priority 2020, dated 2025).

Key:
[1] = tested on: LPS induced lung injury in SD rats; assay: Acute lung injury model study II (LPS induced) in rats; type: in vivo; conditions: 1 and 3 mg/kg iv (G4, G5) at 1 h, 7 h, 24 h after LPS
Experimental: A study was conducted to assess the effect of combined administration of dexamethasone and Compound I in an acute lung injury model. LPS (lipopolysaccharide) was administered to induce lung injury in SD rats (SPF grade male, body weight 180-200 g).
Study group 1 (G1) served as sham control group (no induced acute lung injury) and Group 2 (G2) served as model group (acute lung injury, no treatment).
Dexamethasone, prepared as an aqueous solution, prepared by dissolving the appropriate amount in saline, was used as a positive control in group 3 (G3), and was also administered to group 6 (G6) and group 7 (G7), which also received Compound I. A lyophilized powder of Compound I, was dissolved in an aqueous reconstitution solution comprising Tween 80, acetic acid, sodium acetate, and further diluted with saline before application.
The animals were weighed. LPS (5 mg/kg) was then injected via the trachea of the rat after anesthesia and surgery to expose the trachea (all groups except for G1 where no LPS was injected). […]
Non-invasive lung function tests were determined at 24 hours and at 48 hours (end of the study). […]
Whole lung tissue samples were taken at end of study for histological examination. The histological examination comprised random selection of visual field areas which were blind scored for lung injury. […]

[2] = Comparative pharmacokinetic study, tissue distribution; design: species or system SD rats; conditions: rat, in vivo, iv, 3 mg/kg
Experimental: At the respective time points, blood samples and respective organ/tissues were collected and processed according to standard procedures The concentration of the respective drugs in the respective tissues were then measured using a validated LC-Ms/Ms method.

[3] = tested on: LPS induced lung injury in C57BL/6 mice; assay: Acute lung injury model study (LPS induced) in mice; type: in vivo
Experimental: Compound I was tested in an in vivo mouse model for acute lung injury.
LPS (lipopolysaccharide) was administered to induce lung injury in C57BL/6 mice. LPS elicits an acute inflammatory response in the lung, resulting in progressive damage, and necrosis of lung tissue including the bronchial wall, and alveoli.
LPS (0.3 mg/kg) was administered directly to the trachea of anaesthetized mice in study groups 2 to 6. […]
Non-invasive lung function tests including respiratory frequency, tidal volume, maximum inspiratory speeds and maximal expiratory speeds were determined on Day 2 and end of the study, 24 h after LPS was initially administered.
A significant impact was moreover observed with regards to the pathology of the lung tissue of the mice subjects. […] The histological examination comprised random selection of visual field areas which were blind scored for lung injury according to the following criteria: 1) alveolar congestion, 2) hemorrhage, 3) infiltration of inflammatory cells, and 4) thickness of alveolar wall according to a scale of 0 (minimal damage), 1, (mild damage), 2 (moderate damage), 3 (severe damage), and 4 (maximal damage). […]

- Tmax ([2]; both sexes, Sprague-Dawley (SD)): 30 min
SMILES: C/C=C/C[C@@H](C)[C@@H](O)[C@H]1C(=O)N[C@@H](CC)C(=O)N(C)[C@H](OCCN(C)C)C(=O)N(C)[C@@H](CC(C)C)C(=O)N[C@@H](C(C)C)C(=O)N(C)[C@@H](CC(C)C)C(=O)N[C@@H](C)C(=O)N[C@H](C)C(=O)N(C)[C@@H](CC(C)C)C(=O)N(C)[C@@H](CC(C)C)C(=O)N(C)[C@@H](C(C)C)C(=O)N1C [Compound I, [(R)-2′(2-dimethylaminoethoxy)-Sar]^3 cyclosporin A]
- Total bronchial and arteriole injury scoring ([1]; FIG. 5B): performed significantly better than the model (G2) and the positive group (G3)
- Total alveolar injury scoring ([1]; vs model G2, FIG. 5A): significant positive effect in terms of decreasing the severity of injuries to alveolar tissue
- Tissue distribution [2]: distribute to a greater degree to organ tissues, such as the kidney, and the lung
- Non-invasive lung function tests (tidal volume, breath rate, peak inspiratory and expiratory flow) ([3]; ip 0.5 h and 6 h after LPS, 1, 5, 10 mg/kg, in particular 10 mg/kg, 24 h after LPS, FIG. 1): statistically relevant improvements in some of the lung function tests
- Histological lung injury scoring (bronchial, arteriole and alveolar tissue) ([3]; ip 0.5 h and 6 h after LPS, all doses 1, 5, 10 mg/kg, vs model group G2, FIG. 2): significant effect in terms of decreasing the severity of injuries to bronchial, arteriole and alveolar tissue
